The record followed here is patent US11466020B2, “Compounds and compositions for inhibition and elimination of Zika infection and uses for same” (Cornell University, priority 2017, dated 2022).

A word on the IC50: it is the point on the concentration scale where inhibition reaches its midpoint.

Structures are written as SMILES. Counter-ions that a name gives are not always drawn.

The test system of one test is ZIKV MR766. The test can be described thus: Inhibition of ZIKV infection of hNPCs (high content screen / inhibitory curve, ZIKV E staining). Type of test: cell-based, Zika virus. To be noted: for ZIKV infection of hNPCs compared to DMSO controls: 72 h after ZIKV (MR766) infection; for IC50: Zika virus, hNPCs, ZIKV MR766 MOI=0.125, compound added before infection, infection rate (ZIKV E+ cells), read-out: IC50 values of anti-ZIKV activity. The method, then: A high content chemical screen identifies compounds that inhibit ZIKV infection of hNPCs. To identify drugs that inhibit ZIKV infection, we screened the Prestwick library that includes 1120 FDA-approved drug and drug candidates, selected for known bioavailability and safety in humans. To perform the screen, hNPCs seeded in 384-well plates were treated with each compound from the library or vehicle control (DMSO) for 1 hour, followed by addition of ZIKV MR766 at a MOI=0.125. After two hour of inoculation with ZIKV, the virus-containing medium was replaced by fresh virus-free medium and compounds were replenished for each well (See Methods). After an additional three days of culture, cells were fixed and stained with antibodies against the ZIKV envelop protein (ZIKV E) and a cell proliferation marker Ki67 (FIG. 1A). The percentages of ZIKV E^+ cells, Ki67^+ cells and total cell number were quantified by an automated imaging and analysis system. A two dimensional analysis was performed to choose the primary hit compounds (FIG. 5A). The X-axis represents the fold change of total cell number, which was calculated by dividing the total cell number of the chemical-treated well by the average total cell number of DMSO-treated wells. The Y-axis represents the fold change of the percentage of ZIKV infected cells, which was calculated by dividing the percentage of cells expressing ZIKV E in each chemical-treated well by the average of the percentage of cells expressing ZIKV E from DMSO-treated wells. […] Based on the fold change of the percentage of ZIKV infection, the signal-to-basal (S/B) ratio is 4.2 and the coefficient of variation (CV) is 6.9%. The Z factor is 0.59 indicating a robust screening system.
hNPCs were plated on 96-well plates at 8.5×10^4/cm^2. After overnight incubation, hNPCs were infected with ZIKV (MR766 strain, MOI=0.125) for 2 h, and changed to virus-free medium. The cells were maintained in NPC medium with daily medium change. Three days later, the supernatant and cells were collected and used for assays. hESC-derived forebrain organoids were infected with ZIKV MR766 (5×10^5 PFU/ml) for 24 h. After removal of virus containing medium, forebrain organoids were maintained in forebrain organoid medium for an additional 3 or 17 days and then used for assays.
High-content Screen. hNPCs were dissociated and plated on Matrigel-coated 384-well plates for the chemical screen. […] DMSO was used as a negative control. ZIKV MR766 was added at MOI=0.125. After 2 hour infection, the supernatant was replaced with fresh medium and compounds from the same chemical library were added to the same wells. After an additional 3 days incubation, cells were fixed, stained with antibodies against ZIKV envelop protein (ZIKV E) and proliferation marker Ki67, and analyzed with the ImageXpress^MICRO Automated High-Content Analysis System. […] X-axis represents the fold change of total cell number, which was calculated by dividing the total cell number of the chemical treated well by the average of total cell number of DMSO treated wells. Y-axis represents the fold change of the percentage of ZIKV infection, which was calculated by dividing the percentage of ZIKV infection of the chemical treated well by the average of the percentage of ZIKV infection of DMSO treated wells. The compounds in which the fold change of total cell number >1 and the fold change of the percentage of ZIKV infection <20% were further evaluated. […]

A further test deals with ZIKV (PRVABC59 strain). The test can be described thus: ZIKV PRVABC59 infection of hNPCs (immunocytochemistry). In kind it is cell-based, Zika virus. To be noted: MOI=0.125, 72 h. The method, then:
(A) Scheme of high content chemical screen. (B) Chemical structure of hit compounds. (C) Inhibitory curve and IC50 of HH or AQ on hNPCs (n=6). (D-H) Immunocytochemistry analysis (D), the quantification of the infection rate (E), the quantification of proliferation rate (F), the quantification of cell apoptosis rate (G) and the normalized cell viability (H) of hNPCs at 72 h after ZIKV (MR 766 strain) infection with or without drug treatment. Scale bars, 100 μm. The ZIKV infection rate is defined as the percentage of ZIKV E^+ cells. The proliferation rate is defined as the percentages of Ki67^+ cells. The cell apoptosis rate was defined as the percentage of cleaved-Caspase 3/CAS3^+ cells. The normalized cell viability was calculated by dividing the total cell number of each condition by the total cell number under mock infection conditions. (n=6). […] (K) Quantification of ZIKV infectious particles produced by ZIKV-infected hNPCs with or without compound treatment by the Vero cell reinfection assay. […] (M and N) Immunocytochemistry analysis (M) and quantification of the infection rate (N) of hNPCs at 72 h after ZIKV (PRVABC59 strain) infection with or without drug treatment (n=6). Scale bars, 100 μm. p values were calculated by one-way repeated measures ANOVA with a Bonferroni test for multiple comparisons. *p<0.05, **p<0.01 and ***p<0.001. […]

`CCN(CC)Cc1cc(Nc2ccnc3cc(Cl)ccc23)ccc1O` [AQ, amodiaquine dihydrochloride dihydrate]: in the test with ZIKV MR766, the “ZIKV infection of hNPCs compared to DMSO controls” value is listed as “effectively inhibited ZIKV infection” and the IC50 was found to be 6 µM. Besides, the “ZIKV (PRVABC59) infection of hNPCs” value in the test with ZIKV (PRVABC59 strain) (15 μM AQ) was “effectively inhibited ZIKV infection”.
For the compound `CN1CCC2=C[C@H](O)[C@H]3OC(=O)c4cc5c(cc4[C@H]3[C@@H]21)OCO5` [HH, hippeastrine hydrobromide], in the test on ZIKV MR766, the “ZIKV infection of hNPCs compared to DMSO controls” value was “effectively inhibited ZIKV infection” and the IC50 was found to be 5.5 µM. Besides, the “ZIKV (PRVABC59) infection of hNPCs” value in the test on ZIKV (PRVABC59 strain) (25 μM HH) is on record as “effectively inhibited ZIKV infection”.
